# Tests used:
# SAH rats [1] = experiment: Long-term survival rate of SAH rats; format: in vivo, rat; conditions: for Survival rate / 24-hour mortality rate: 2 hours after modeling then once a day for 14 days
# Experimental: The experimental materials, grouping and modeling methods were the same as those in effect embodiment 1. The rats were immediately administrated 2 hours after SAH modeling according to the grouping administration protocol and continued to be administrated once a day for 14 days thereafter, and the survival of the rats was observed and recorded for 14 days. The mortality rate within 24 hours in group S was as high as 53.8%.
# SAH rats [2] = experiment: Ca2+ level and mitochondrial membrane potential in brain tissue, SAH rats; format: in vivo, rat; conditions: 12-24 hours after operation, group M
# Experimental: The rats were decapitated to collect the brain 12 to 24 hours after modeling. The brain cortex around the hematoma was immediately taken to prepare a single cell suspension by enzymatic digestion (papain: 2 mg/mL; DNAase I: 0.05 mg/mL), with the cell concentration was adjusted to 5×10^6 cells/mL. 100 μL of cell suspension was incubated with 5 μM Fluo-3/AM dye solution or 10 μM Rhodamine 123 dye solution at 37° C. for 45 min. Then the cells were washed twice with PBS (phosphate buffer, pH=7.2-7.4), resuspended with 0.5 mL of PBS, and detected by a flow cytometry at the excitation wavelength of 506 nm and the emission wavelength of 526 nm. The mean fluorescence intensity of Fluo-3 and Rh123 in 10,000 cells was analyzed by FlowJo software.
smiles,measurement,setting,value
"C/C=C/c1cc(OC)c(OC)cc1OC [α-asarone, trans-2,4,5-trimethoxy-1-propenylbenzene]",survival time (vs group S),"SAH rats [1]; 14 days, groups M, H, O and N",prolonged
same,Survival rate,"SAH rats [1]; Day 14, group H, α-asarone emulsion injection 30 mg/kg tail vein",55.6%
same,Survival rate,"SAH rats [1]; Day 14, group L, α-asarone emulsion injection 7.5 mg/kg tail vein",37.5%
same,Survival rate,"SAH rats [1]; Day 14, group M, α-asarone emulsion injection 15 mg/kg tail vein",61.5%
same,Survival rate,"SAH rats [1]; Day 14, group O, α-asarone emulsion oral administration 40 mg/kg",62.5%
same,24-hour mortality rate,"SAH rats [1]; group H, α-asarone emulsion injection 30 mg/kg tail vein",22.2%
same,24-hour mortality rate,"SAH rats [1]; group L, α-asarone emulsion injection 7.5 mg/kg tail vein",50.0%
same,24-hour mortality rate,"SAH rats [1]; group M, α-asarone emulsion injection 15 mg/kg tail vein",23.1%
same,24-hour mortality rate,"SAH rats [1]; group O, α-asarone emulsion oral administration 40 mg/kg",25.0%
same,mortality rate within 24 hours (vs group S),"SAH rats [1]; groups M, H, O and N",significantly reduced
same,calcium level in brain tissue,SAH rats [2]; Fluo-3 flow cytometry,significantly reduce
same,mitochondrial membrane potential in brain tissue,SAH rats [2]; Rhodamine 123 flow cytometry,stabilize

# Source: US12636260B2, “Application of α-asarone in preparation of medicine for preventing or treating hemorrhagic stroke” (CHENGDU XINRUI TAIKANG TECHNOLOGY CO., LTD., priority 2021, dated 2026)
